This is an account of results in ChEMBL document CHEMBL5291721, “A preclinical secondary pharmacology resource illuminates target-adverse drug reaction associations of marketed drugs” (Nat Commun, 2023).

For assay [1], the target named is Gamma-aminobutyric acid receptor subunit alpha-1/alpha-2/beta-2/gamma-2 (Homo sapiens, UniProt P14867+P18507+P47869+P47870). The class given is functional, cell-based.
Assay [2] has as its target Beta-1 adrenergic receptor (Homo sapiens, UniProt P08588). The class given is functional, cell-based.
In assay [3] the target is T1, Peroxisome proliferator-activated receptor gamma (Homo sapiens, UniProt P37231).
T1 sequence (P37231 whole entry): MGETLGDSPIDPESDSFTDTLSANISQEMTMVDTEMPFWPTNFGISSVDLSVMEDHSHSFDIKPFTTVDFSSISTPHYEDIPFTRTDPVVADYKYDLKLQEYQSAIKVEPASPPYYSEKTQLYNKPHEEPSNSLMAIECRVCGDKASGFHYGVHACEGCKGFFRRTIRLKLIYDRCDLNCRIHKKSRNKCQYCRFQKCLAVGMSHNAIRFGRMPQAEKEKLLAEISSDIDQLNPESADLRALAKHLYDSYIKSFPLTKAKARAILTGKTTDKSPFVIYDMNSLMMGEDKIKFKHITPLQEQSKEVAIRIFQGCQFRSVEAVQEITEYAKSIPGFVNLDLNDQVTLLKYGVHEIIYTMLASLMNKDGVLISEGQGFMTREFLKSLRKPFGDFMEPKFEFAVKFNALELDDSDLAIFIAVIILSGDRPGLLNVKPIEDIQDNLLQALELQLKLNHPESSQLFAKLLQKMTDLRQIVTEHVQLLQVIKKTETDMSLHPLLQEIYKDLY
The assay is classed as functional.

Assay [4] deals with T2, Muscarinic acetylcholine receptor M1 (Homo sapiens, UniProt P11229).
T2 sequence (P11229 whole entry): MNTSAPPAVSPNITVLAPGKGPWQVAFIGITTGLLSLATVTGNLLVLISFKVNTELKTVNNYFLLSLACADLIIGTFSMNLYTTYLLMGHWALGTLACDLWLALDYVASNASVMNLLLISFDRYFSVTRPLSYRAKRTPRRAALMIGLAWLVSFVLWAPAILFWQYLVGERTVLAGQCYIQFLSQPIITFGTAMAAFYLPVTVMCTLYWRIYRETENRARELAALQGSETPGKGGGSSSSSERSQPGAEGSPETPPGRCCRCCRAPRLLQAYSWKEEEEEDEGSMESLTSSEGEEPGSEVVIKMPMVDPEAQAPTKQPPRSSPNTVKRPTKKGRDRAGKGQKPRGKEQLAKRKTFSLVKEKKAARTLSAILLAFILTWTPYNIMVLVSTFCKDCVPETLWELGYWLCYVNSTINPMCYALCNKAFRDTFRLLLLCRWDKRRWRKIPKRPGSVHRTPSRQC

Assay [5] deals with Gamma-aminobutyric acid type B receptor subunit 1 (Homo sapiens, UniProt Q9UBS5).
The target in assay [6] is 5-hydroxytryptamine receptor 2B (Homo sapiens, UniProt P41595).
Assay [7] has as its target T3, Alpha-2A adrenergic receptor (Homo sapiens, UniProt P08913).
T3 sequence (P08913 whole entry): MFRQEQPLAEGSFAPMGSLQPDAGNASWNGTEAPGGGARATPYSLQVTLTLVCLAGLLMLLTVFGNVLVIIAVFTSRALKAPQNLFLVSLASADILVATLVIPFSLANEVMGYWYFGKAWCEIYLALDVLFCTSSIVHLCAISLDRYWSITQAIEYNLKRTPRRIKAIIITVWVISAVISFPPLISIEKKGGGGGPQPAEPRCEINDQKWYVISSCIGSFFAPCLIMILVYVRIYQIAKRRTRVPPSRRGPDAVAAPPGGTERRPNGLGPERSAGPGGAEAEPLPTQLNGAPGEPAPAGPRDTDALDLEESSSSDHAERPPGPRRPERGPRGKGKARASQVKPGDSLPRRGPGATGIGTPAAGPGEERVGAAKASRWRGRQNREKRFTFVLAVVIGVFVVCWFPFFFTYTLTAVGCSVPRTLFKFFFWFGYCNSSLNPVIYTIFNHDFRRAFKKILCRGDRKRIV

The target of assay [8] is T4, Alpha-1A adrenergic receptor (Homo sapiens, UniProt P35348).
T4 sequence (P35348 whole entry): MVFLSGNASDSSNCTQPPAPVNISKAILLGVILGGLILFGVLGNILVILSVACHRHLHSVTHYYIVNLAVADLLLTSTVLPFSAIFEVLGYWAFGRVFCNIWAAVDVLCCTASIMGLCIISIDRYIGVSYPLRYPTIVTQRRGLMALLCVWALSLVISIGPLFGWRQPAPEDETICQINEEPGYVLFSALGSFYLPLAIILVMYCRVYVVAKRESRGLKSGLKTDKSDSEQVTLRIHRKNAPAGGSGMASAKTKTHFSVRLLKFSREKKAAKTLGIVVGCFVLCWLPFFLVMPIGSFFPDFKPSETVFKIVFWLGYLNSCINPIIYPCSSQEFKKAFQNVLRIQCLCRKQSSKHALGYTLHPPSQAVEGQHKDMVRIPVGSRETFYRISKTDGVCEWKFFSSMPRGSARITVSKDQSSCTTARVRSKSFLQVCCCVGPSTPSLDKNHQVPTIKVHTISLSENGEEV

In another assay the target is T5, B1 bradykinin receptor (Homo sapiens, UniProt P46663).
T5 sequence (P46663 whole entry): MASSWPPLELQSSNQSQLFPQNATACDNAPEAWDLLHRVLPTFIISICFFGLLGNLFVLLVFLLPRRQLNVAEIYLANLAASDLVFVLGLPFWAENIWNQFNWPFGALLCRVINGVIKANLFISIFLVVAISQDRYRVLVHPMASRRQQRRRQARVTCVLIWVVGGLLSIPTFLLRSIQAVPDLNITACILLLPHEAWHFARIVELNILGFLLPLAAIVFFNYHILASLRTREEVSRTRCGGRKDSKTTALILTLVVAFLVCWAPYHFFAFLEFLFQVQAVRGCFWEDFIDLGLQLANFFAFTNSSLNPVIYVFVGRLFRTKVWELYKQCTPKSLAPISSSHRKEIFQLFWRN

Structures are written as SMILES.
Note: assay procedure not described here.

Chain of Gamma-aminobutyric acid receptor subunit alpha-1/alpha-2/beta-2/gamma-2 (P14867 whole entry): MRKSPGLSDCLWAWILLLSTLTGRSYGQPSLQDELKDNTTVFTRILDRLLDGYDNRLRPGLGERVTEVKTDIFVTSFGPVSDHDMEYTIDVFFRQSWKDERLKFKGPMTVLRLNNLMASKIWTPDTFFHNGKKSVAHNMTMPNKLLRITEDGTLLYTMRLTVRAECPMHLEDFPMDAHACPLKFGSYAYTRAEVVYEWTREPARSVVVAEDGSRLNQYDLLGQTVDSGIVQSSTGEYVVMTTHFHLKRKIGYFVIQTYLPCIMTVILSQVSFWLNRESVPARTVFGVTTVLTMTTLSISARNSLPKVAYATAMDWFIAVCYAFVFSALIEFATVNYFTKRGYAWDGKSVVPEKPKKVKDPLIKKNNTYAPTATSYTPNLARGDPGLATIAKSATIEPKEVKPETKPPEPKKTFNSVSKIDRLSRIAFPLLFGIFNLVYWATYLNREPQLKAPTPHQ
Chain of Gamma-aminobutyric acid receptor subunit alpha-1/alpha-2/beta-2/gamma-2 (P47870 whole entry): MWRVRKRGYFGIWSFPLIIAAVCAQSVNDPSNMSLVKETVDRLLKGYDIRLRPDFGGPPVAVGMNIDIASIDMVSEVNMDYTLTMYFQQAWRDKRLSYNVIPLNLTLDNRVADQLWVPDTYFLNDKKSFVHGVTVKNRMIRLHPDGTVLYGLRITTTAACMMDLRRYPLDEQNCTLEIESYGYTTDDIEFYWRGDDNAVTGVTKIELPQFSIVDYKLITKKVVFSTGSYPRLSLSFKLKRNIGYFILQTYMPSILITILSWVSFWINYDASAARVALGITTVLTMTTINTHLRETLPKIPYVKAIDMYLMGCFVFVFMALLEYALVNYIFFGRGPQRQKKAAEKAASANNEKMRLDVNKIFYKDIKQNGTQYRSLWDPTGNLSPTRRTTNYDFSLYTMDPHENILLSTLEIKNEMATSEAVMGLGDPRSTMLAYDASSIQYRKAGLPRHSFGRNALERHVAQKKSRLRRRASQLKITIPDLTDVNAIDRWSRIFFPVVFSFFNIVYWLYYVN
Chain of Gamma-aminobutyric acid receptor subunit alpha-1/alpha-2/beta-2/gamma-2 (P18507 whole entry): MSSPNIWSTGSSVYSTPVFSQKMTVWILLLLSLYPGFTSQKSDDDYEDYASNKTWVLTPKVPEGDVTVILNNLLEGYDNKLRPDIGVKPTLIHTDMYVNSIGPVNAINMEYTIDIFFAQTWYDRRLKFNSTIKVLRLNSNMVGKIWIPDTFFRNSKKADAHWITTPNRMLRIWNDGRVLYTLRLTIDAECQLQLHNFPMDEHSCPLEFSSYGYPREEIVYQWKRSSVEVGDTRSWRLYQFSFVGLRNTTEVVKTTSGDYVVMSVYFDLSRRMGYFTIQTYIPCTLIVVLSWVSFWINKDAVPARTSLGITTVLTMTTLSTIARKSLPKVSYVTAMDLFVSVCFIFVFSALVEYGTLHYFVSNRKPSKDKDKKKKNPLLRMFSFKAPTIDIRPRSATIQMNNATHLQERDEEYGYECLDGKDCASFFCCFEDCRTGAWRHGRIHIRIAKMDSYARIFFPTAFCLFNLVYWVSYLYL
Chain of Gamma-aminobutyric acid receptor subunit alpha-1/alpha-2/beta-2/gamma-2 (P47869 whole entry): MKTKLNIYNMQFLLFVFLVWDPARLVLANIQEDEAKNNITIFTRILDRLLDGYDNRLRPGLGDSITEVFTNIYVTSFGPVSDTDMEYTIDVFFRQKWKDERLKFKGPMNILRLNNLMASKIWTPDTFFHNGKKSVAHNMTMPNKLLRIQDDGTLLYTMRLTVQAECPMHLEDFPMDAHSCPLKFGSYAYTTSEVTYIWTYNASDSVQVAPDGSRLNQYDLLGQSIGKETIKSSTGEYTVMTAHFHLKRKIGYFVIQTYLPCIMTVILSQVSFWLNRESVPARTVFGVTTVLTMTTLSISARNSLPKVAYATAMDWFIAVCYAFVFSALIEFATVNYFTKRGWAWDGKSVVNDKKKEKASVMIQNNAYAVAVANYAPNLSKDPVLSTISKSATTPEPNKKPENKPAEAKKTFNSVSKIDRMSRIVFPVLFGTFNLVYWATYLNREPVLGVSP
Chain of 5-hydroxytryptamine receptor 2B (P41595 whole entry): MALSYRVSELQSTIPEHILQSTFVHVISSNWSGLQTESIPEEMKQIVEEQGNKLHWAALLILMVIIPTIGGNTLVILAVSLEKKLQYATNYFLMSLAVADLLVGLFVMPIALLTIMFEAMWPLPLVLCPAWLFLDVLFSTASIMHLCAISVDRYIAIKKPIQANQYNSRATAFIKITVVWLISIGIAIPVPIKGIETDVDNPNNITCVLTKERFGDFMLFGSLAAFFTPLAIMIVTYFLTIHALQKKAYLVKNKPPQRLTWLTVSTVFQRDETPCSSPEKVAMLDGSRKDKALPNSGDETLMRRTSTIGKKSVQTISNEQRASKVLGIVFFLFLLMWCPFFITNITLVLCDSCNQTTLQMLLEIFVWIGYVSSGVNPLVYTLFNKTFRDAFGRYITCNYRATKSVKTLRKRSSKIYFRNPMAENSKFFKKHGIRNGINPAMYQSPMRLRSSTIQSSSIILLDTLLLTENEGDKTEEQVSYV
Chain of Gamma-aminobutyric acid type B receptor subunit 1 (Q9UBS5 whole entry): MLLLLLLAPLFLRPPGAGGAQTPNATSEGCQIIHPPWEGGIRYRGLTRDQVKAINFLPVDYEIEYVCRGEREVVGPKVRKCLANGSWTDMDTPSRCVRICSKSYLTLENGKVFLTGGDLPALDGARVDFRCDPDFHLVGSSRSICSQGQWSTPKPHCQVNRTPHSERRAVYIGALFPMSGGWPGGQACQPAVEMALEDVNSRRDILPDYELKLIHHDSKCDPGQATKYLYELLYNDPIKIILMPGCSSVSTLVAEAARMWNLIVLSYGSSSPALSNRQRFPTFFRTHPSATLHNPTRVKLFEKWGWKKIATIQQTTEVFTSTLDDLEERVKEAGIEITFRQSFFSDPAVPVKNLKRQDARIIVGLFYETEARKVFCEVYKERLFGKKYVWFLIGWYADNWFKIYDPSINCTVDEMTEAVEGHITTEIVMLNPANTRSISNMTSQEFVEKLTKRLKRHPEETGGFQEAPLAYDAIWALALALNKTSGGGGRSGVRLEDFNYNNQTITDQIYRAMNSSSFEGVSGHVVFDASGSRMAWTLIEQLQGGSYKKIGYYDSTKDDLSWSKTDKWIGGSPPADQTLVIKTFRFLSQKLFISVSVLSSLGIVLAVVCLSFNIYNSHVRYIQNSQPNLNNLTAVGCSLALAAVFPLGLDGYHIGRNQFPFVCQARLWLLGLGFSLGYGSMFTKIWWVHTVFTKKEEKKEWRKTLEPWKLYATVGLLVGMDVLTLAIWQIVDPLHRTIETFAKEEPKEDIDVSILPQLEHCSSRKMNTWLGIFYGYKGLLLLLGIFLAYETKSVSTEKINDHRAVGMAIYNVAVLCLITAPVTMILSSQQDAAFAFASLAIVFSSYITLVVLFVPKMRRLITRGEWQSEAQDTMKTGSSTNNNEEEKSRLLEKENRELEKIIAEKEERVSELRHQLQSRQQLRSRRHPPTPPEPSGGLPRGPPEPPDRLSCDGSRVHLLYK
Chain of Beta-1 adrenergic receptor (P08588 whole entry): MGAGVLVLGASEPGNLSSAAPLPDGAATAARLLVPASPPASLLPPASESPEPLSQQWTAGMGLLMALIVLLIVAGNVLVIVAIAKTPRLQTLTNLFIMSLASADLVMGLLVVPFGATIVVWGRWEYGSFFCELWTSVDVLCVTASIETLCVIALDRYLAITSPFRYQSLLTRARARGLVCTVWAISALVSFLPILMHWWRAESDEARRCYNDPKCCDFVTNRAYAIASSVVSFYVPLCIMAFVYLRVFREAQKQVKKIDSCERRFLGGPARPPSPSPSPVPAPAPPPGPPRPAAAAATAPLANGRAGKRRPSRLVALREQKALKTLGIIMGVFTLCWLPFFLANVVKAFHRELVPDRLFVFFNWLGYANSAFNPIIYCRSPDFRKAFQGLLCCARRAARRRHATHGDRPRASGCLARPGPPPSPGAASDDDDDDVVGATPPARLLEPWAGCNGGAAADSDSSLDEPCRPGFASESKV

By AC50 is commonly meant the concentration giving half of the maximal activity seen. In turn, `Oc1cc(Cl)ccc1Oc1ccc(Cl)cc1Cl` [TRICLOSAN] returned an AC50 in assay [1] of more than 30 µM.
For the compound `CC(C)(Oc1ccc(Cl)cc1)C(=O)OCCOC(=O)c1cccnc1` [ETOFIBRATE], the AC50 in assay [2] and in assay [3] was more than 30 µM throughout.
In assay [4], `CC(=O)Nc1ccc(/C=N/NC(N)=S)cc1` [AMITHIOZONE] yielded an AC50 of more than 30 µM.
In turn, `COc1ccc(C(=O)c2ccccc2)c(O)c1` [OXYBENZONE] gave an AC50 in assay [1] of more than 30 µM.
`OC(CN1CCCCC1)c1cc(-c2ccccc2)on1` (stereo not given) [PERISOXAL] showed an AC50 in assay [4] of 20.4 µM.
For the compound `Cc1ccc(O)c([C@H](CCN(C(C)C)C(C)C)c2ccccc2)c1` [TOLTERODINE], the AC50 in assay [5], in assay [6], in assay [7] and in assay [8] was more than 10 µM throughout.
As for `C[C@]12C=CC(=O)C=C1CC[C@@H]1[C@@H]2[C@@H](O)C[C@@]2(C)[C@H]1CC[C@]2(O)C(=O)CO` [PREDNISOLONE], the AC50 at B1 bradykinin receptor was more than 30 µM.
Compound `C[C@@H](O)[C@H]1C(=O)N2C(C(=O)O)=C(S[C@@H]3CN[C@H](C(=O)Nc4cccc(C(=O)O)c4)C3)[C@H](C)[C@H]12` returned an AC50 in [4] of more than 30 µM.
As to `CSCC[C@H](N)C(=O)O` [METHIONINE], in assay [4], the AC50 was more than 30 µM.
Turning to `C[C@]12C=CC(=O)C=C1C(Cl)=C[C@@H]1[C@@H]2[C@@H](O)C[C@@]2(C)[C@H]1CC[C@]2(O)C(=O)CO` [CLOPREDNOL], the AC50 in [1] and in assay [3] was more than 30 µM each time.
`C[C@]12CCC(=O)C=C1C=C[C@@H]1[C@@H]2CC[C@@]2(C)[C@H]1CC[C@@]21CCC(=O)O1` [CANRENONE] returned an AC50 in assay [2] of more than 30 µM.
`CC(C)(C)NCC(O)COc1ccccc1C#N` (stereo not given) [BUNITROLOL]: the AC50 in assay [1] is more than 30 µM.
The compound `C[C@]12CCC(=O)C=C1[C@@H]1C[C@@H]1[C@H]1[C@@H]3[C@@H]4C[C@@H]4[C@@]4(CCC(=O)O4)[C@@]3(C)CC[C@@H]12` [DROSPIRENONE] displayed an AC50 in assay [6] of more than 30 µM.
Take `N=C(N)NC(=O)c1nc(Cl)c(N)nc1N` [AMILORIDE]: the AC50 on B1 bradykinin receptor is more than 10 µM; in assay [5], more than 10 µM; in assay [6], 5.63 µM; in [7] it was more than 10 µM; in assay [8] it was more than 10 µM.
As for `COc1cccc2c1C(=O)c1c(O)c3c(c(O)c1C2=O)C[C@@](O)(C(=O)CO)C[C@@H]3O[C@H]1C[C@H](N)[C@H](O)[C@H](C)O1` [DOXORUBICIN], the AC50 in [3] and in assay [7] was more than 10 µM in each case.
